Results on 23 compounds are retold here after US20260001898A1, “Heteroaryl compounds as inhibitors of TYK2/JAK1, composition and application thereof” (Accro Bioscience (HK) Limited, priority 2022, published 2026).

Structures are written as SMILES.

The test system of this test is IFNα induced TYK2/JAK1 mediated STAT activation. In words: Luciferase assay in L929 ISRE cells stimulated with IFN-α. The format is cell-based. The note with it: Mus musculus, IFN-α 100 ng/mL; for inhibition at 0.05 µM: 50 nM compound, read-out: Inhibitory activity % (50 nM); for inhibition at 0.2 µM: 200 nM compound, read-out: Inhibitory activity % (200 nM); for inhibition at 1 µM: 1000 nM compound, read-out: Inhibitory activity % (1000 nM). The protocol:
• 1. L929 ISRE cells (5000 cells/well) were seeded on 96-well plates and incubated overnight at room temperature-; • 2. The cells were pretreated by adding different concentrations (10 nM, 50 nM, 100 nM, 200 nM or 1000 nM) of the test compounds for 2 hours; • 3. Added IFN-α (100 ng/mL) to stimulate cells for 6 hours; • 4. Removed the upper medium, add PBS (100 μL) and washed, then removed PBS; • 5. Added PLB lysis solution (50 μL) to each well, shook the well for 15 minutes; • 6. Transferred PLB lysis solution (30 μL) to a new 96-well whiteboard, added LAR II reagent (LAR II), then quickly read the 450 nm OD value with a plate washer; • 7. Added Stop & Glo reagent (30 μL), then read the 450 nm OD value using the plate washer. • 8. The final result was the OD value in step 6/OD value in step 7.

In the case of `[2H]C([2H])([2H])n1ccc(Nc2cc(Nc3cccc(-c4cc(P(=O)(C5CC5)C5CC5)n(C)n4)c3OC)c(C(N)=O)nn2)n1` [Compound A41], the inhibition at 0.05 µM came out at 55%, the inhibition at 0.2 µM turned out to be 90% and the inhibition at 1 µM was 95%.

Turning to `COC(=O)Nc1cc(Nc2cccc(-c3cc(P(=O)(C4CC4)C4CC4)n(C)n3)c2OC)c(C(N)=O)nn1` [Compound A23], the inhibition at 0.2 µM amounted to 38% and the inhibition at 1 µM amounted to 85%.

On to `COc1c(Nc2cc(NC(=O)C3CC3)nnc2C(N)=O)ncnc1-c1cc(P(=O)(C2CC2)C2CC2)n(C)n1` [Compound A3, 6-(cyclopropanecarboxamido)-4-((6-(5-(dicyclopropylphosphoryl)-1-methyl-1H-pyrazol-3-yl)-5-methoxypyrimidin-4-yl)amino)pyridazine-3-carboxamide], for which the inhibition at 0.05 µM was determined as 34%, the inhibition at 0.2 µM came out at 39% and the inhibition at 1 µM stood at 71%.

Consider `COc1cc(P(=O)(C2CC2)C2CC2)ccc1Nc1cc(Nc2cc(C)ccn2)nnc1C(N)=O` [Compound B1, 4-((4-(dicyclopropylphosphoryl)-2-methoxyphenyl)amino)-6-((4-methylpyridin-2-yl)amino)pyridazine-3-carboxamide], for which the inhibition at 1 µM was found to be 0%.

As for `COc1c(-c2cc(P(C)(C)=O)n(C)n2)ccnc1Nc1cc(Nc2cc(C)ccn2)nnc1C(N)=O` [Compound A55, 4-((4-(5-(dimethylphosphoryl)-1-methyl-1H-pyrazol-3-yl)-3-methoxypyridin-2-yl)amino)-6-((4-methylpyridin-2-yl)amino)pyridazine-3-carboxamide], the inhibition at 0.05 µM worked out at 34%, the inhibition at 0.2 µM is 63% and the inhibition at 1 µM was 90%.

For `COc1c(Nc2cc(Nc3ncccn3)nnc2C(N)=O)cccc1-c1cc(P(=O)(C2CC2)C2CC2)n(C)n1` [Compound A38], the inhibition at 0.05 µM was found to be 36%, the inhibition at 0.2 µM was determined as 66% and the inhibition at 1 µM turned out to be 89%.

Take `[2H]C([2H])([2H])n1nc(-c2cc(F)cc(Nc3cc(Nc4cc(C)ccn4)nnc3C(N)=O)c2OC)cc1P(C)(C)=O` [Compound A56]: the inhibition at 0.05 µM stood at 31%, the inhibition at 0.2 µM is 70% and the inhibition at 1 µM was determined as 95%.

Regarding `CCP(=O)(CC)c1ccc(Nc2cc(NC(=O)C3CC3)ncc2C(N)=O)c(OC)c1` [Compound B3, 6-(cyclopropanecarboxamido)-4-((4-(diethylphosphoryl)-2-methoxyphenyl)amino)nicotinamide], the inhibition at 1 µM amounted to 19%.

Consider `COc1c(Nc2cc(Nc3ccccn3)nnc2C(N)=O)cccc1-c1cc(P(=O)(C2CC2)C2CC2)n(C)n1` [Compound A4, 4-((3-(5-(dicyclopropylphosphoryl)-1-methyl-1H-pyrazol-3-yl)-2-methoxyphenyl)amino)-6-(pyridin-2-ylamino)pyridazine-3-carboxamide], for which the inhibition at 0.05 µM was found to be 61%, the inhibition at 0.2 µM was 93% and the inhibition at 1 µM amounted to 99%.

As for `COc1c(Nc2cc(Nc3cnccn3)nnc2C(N)=O)cccc1-c1cc(P(=O)(C2CC2)C2CC2)n(C)n1` [Compound A39], the inhibition at 0.05 µM is 59%, the inhibition at 0.2 µM worked out at 78% and the inhibition at 1 µM is 97%.

As for `CCn1ccc(Nc2cc(Nc3cccc(-c4cc(P(=O)(C5CC5)C5CC5)n(C)n4)c3OC)c(C(N)=O)nn2)n1` [Compound A42], the inhibition at 0.05 µM is 76%, the inhibition at 0.2 µM was found to be 90% and the inhibition at 1 µM was 92%.

As to `COc1c(Nc2cc(NC(=O)C3CC3)ncc2C(N)=O)cccc1-c1cnc(P(C)(C)=O)cn1` [Compound A63, 6-(cyclopropanecarboxamido)-4-((3-(5-(dimethylphosphoryl)pyrazin-2-yl)-2-methoxyphenyl)amino)nicotinamide], the inhibition at 0.05 µM was 33%, the inhibition at 0.2 µM turned out to be 43% and the inhibition at 1 µM amounted to 75%.

Turning to `COc1c(Nc2cc(Nc3cc(C)ccn3)nnc2C(N)=O)cc(F)cc1-c1cc(P(C)(C)=O)n(C)n1` [Compound A51, 4-((3-(5-(dimethylphosphoryl)-1-methyl-1H-pyrazol-3-yl)-5-fluoro-2-methoxyphenyl)amino)-6-((4-methylpyridin-2-yl)amino)pyridazine-3-carboxamide], the inhibition at 0.05 µM stood at 55%, the inhibition at 0.2 µM is 82% and the inhibition at 1 µM worked out at 86%.

Turning to `COc1c(Nc2cc(NC(=O)C3CC3)nnc2C(N)=O)cccc1-c1ncc(P(C)(C)=O)cn1` [Compound A7, 6-(cyclopropanecarboxamido)-4-((3-(5-(dimethylphosphoryl)pyrimidin-2-yl)-2-methoxyphenyl)amino)pyridazine-3-carboxamide], the inhibition at 0.05 µM was 18%, the inhibition at 0.2 µM was 25% and the inhibition at 1 µM was determined as 64%.

For the compound `COc1c(-c2cc(P(=O)(C3CC3)C3CC3)n(C)n2)ccnc1Nc1cc(N)nnc1C(N)=O` [Compound A13, 6-Amino-4-((4-(5-(dicyclopropylphosphoryl)-1-methyl-1H-pyrazol-3-yl)-3-methoxypyridin-2-yl)amino)pyridazine-3-carboxamide], the inhibition at 0.05 µM came out at 9%, the inhibition at 0.2 µM amounted to 71% and the inhibition at 1 µM came to 95%.

With `COc1c(Nc2cc(Nc3cccc(C#N)n3)nnc2C(N)=O)cccc1-c1cc(P(=O)(C2CC2)C2CC2)n(C)n1` [Compound A34], the inhibition at 0.05 µM worked out at 17%, the inhibition at 0.2 µM was determined as 67% and the inhibition at 1 µM came out at 95%.

As for `COc1cc(P(=O)(C2CC2)C2CC2)ccc1Nc1cc(Nc2ccn(C)n2)nnc1C(N)=O` [Compound B7], the inhibition at 1 µM was determined as 0%.

`COc1c(Nc2cc(Nc3ccccn3)nnc2C(N)=O)cccc1-c1cc(P(C)(C)=O)n(C)n1` [Compound A26]: the inhibition at 1 µM amounted to 80%.

For `COc1ccc(Nc2cc(Nc3cccc(-c4cc(P(C)(C)=O)n(C)n4)c3OC)c(C(N)=O)nn2)nc1` [Compound A30], the inhibition at 0.05 µM came to 14%, the inhibition at 0.2 µM worked out at 58% and the inhibition at 1 µM was found to be 90%.

On to `COc1c(Nc2cc(NC(=O)C3CC3)nnc2C(N)=O)cccc1-c1cc(P(=O)(C2CC2)C2CC2)[nH]n1` [Compound A48, 6-(cyclopropanecarboxamido)-4-((3-(5-(dicyclopropylphosphoryl)-1H-pyrazol-3-yl)-2-methoxyphenyl)amino)pyridazine-3-carboxamide], for which the inhibition at 0.05 µM worked out at 17%, the inhibition at 0.2 µM turned out to be 56% and the inhibition at 1 µM stood at 76%.

As to `COc1c(Nc2cc(Nc3ncccc3C#N)nnc2C(N)=O)cccc1-c1cc(P(=O)(C2CC2)C2CC2)n(C)n1` [Compound A43], the inhibition at 0.05 µM was found to be 0%, the inhibition at 0.2 µM was found to be 18% and the inhibition at 1 µM was 64%.

On to `COc1ccc(Nc2cc(Nc3cccc(-c4cc(P(=O)(C5CC5)C5CC5)n(C)n4)c3OC)c(C(N)=O)nn2)nc1` [Compound A5], for which the inhibition at 0.05 µM worked out at 91%, the inhibition at 0.2 µM stood at 97% and the inhibition at 1 µM turned out to be 99%.

In the case of `COc1c(Nc2cc(Nc3cc(C)ccn3)nnc2C(N)=O)cncc1-c1cc(P(C)(C)=O)n(C2CC2)n1` [Compound A58], the inhibition at 1 µM is 86%.
